Results from patent US12558338B2, “Pharmaceutical composition” (SUNSHINE LAKE PHARMA CO., LTD., priority 2019, dated 2026).

Assay: Solubility in water
Format: physicochemical
Conditions: compared with memantine hydrochloride

SMILES: CC12CC3CC(C)(C1)CC(NC(=O)OCOC(=O)c1ccccc1)(C3)C2 [formula A, ((((1r,3R,5S,7r)-3,5-dimethyladamantan-1-yl)carbamoyl)oxy)methyl benzoate]
- solubility: almost insoluble in water
